Bridge positions count the residues as written; N and C are the ends. Square brackets hold non-standard residues; d marks the D form. Peptide text beside a SMILES is read from it. * marks the point of attachment. ξ: configuration not given here. Phe(4-COOH) = N[C@@H](Cc1ccc(C(=O)O)cc1)C(=O)O; Bip = N[C@@H](Cc1ccc(-c2ccccc2)cc1)C(=O)O; NH(CH2)14COOH = O=C(O)CCCCCCCCCCCCCCN*; NH(CH2)12COOH = O=C(O)CCCCCCCCCCCCN*; hArg = N=C(N)NCCCC[C@H](N)C(=O)O; 4Pal = N[C@@H](Cc1ccncc1)C(=O)O; Cha = N[C@@H](CC1CCCCC1)C(=O)O; Thr(3ξ) = CC(O)[C@H](N)C(=O)O; 12Ado = NCCCCCCCCCCCC(=O)O; Carboxymethyl = O=C(O)C*; Orn = NCCC[C@H](N)C(=O)O; Aun = NCCCCCCCCCCC(=O)O; Dab = NCC[C@H](N)C(=O)O; AEEA = NCCOCCOCC(=O)O
Target: T1, PD-1/PD-L1 interaction (PE-labeled human PD-L1-Ig binding to Jurkat cell line over-expressing human PD-1) (Homo sapiens, UniProt Q15116)
T1 construct: expressed in transfected cells; host or cells: Jurkat
Experiment: Jurkat-PD-1 Cell Binding High-Content Screening Assay (CBA)
Format: cell-based
Details: Jurkat cell line over-expressing human PD-1; PE-labeled PD-L1-Ig 20 nM final; read-out: Jurkat hPD1-PDL1 IC50
Summary of the method: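 Binding of fluorescent PD-L1-Ig (phycoerythrin on Ig tag, 20 nM final, 1 h) measured by high-content imaging of fixed, Hoechst-counterstained Jurkat-hPD-1 cells. Compound added 2 h at 37° C beforehand, in DMEM with 10% fetal calf serum.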

T1 sequence (Q15116 25-288): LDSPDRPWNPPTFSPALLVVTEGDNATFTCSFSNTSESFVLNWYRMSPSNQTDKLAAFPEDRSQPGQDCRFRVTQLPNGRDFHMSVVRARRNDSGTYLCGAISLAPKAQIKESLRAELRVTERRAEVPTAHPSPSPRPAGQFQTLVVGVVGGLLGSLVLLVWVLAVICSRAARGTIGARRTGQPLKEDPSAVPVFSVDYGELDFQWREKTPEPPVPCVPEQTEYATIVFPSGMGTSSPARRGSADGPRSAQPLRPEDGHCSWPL

| SMILES | IC50 [nM] |
| --- | --- |
| CC(C)C[C@H]1NC(=O)[C@H](CCCN)NC(=O)[C@H](C(C)C)NC(=O)[C@H](Cc2ccc(-c3ccccc3)cc2)NC(=O)[C@H](C(C)C)NC(=O)[C@H](Cc2c[nH]c3ccccc23)NC(=O)[C@H](CC(=O)O)NC(=O)[C@H](Cc2ccc(OCC(=O)O)cc2)NC(=O)[C@H](CCCCNC(=N)N)NC(=O)CSC[C@@H](C(=O)N[C@@H](CC(N)=O)C(=O)NCCOCCOCC(=O)N[C@@H](CCCCN)C(=O)NCCCCCCCCCCC(=O)O)NC(=O)[C@H](C(C)O)NC(=O)[C@H](C(C)C)NC(=O)[C@H](CC2CCCCC2)NC(=O)[C@H](CCN)NC1=O (stereo partly drawn) [Compound 3026] ({CH2CO}-[hArg]Y(Carboxymethyl)DWV[Bip]V[Orn][dL][Dab][Cha]V[Thr(3ξ)]CN[AEEA]K[Aun]-OH; thioether N-14) | 10 |
| CC(C)C[C@H]1NC(=O)[C@H](CCCN)NC(=O)[C@H](C(C)C)NC(=O)[C@H](Cc2ccc(-c3ccccc3)cc2)NC(=O)[C@H](C(C)C)NC(=O)[C@H](Cc2c[nH]c3ccccc23)NC(=O)[C@H](CC(=O)O)NC(=O)[C@H](Cc2ccc(OCC(=O)O)cc2)NC(=O)[C@H](C(C)O)NC(=O)CSC[C@@H](C(=O)N[C@@H](CC(N)=O)C(=O)NCCOCCOCC(=O)N[C@@H](CCCCN)C(=O)NCCCCCCCCCCC(=O)O)NC(=O)[C@H](C(C)O)NC(=O)[C@H](C(C)C)NC(=O)[C@H](CC2CCCCC2)NC(=O)[C@H](CCN)NC1=O (stereo partly drawn) [Compound 3027] ({CH2CO}-[Thr(3ξ)]Y(Carboxymethyl)DWV[Bip]V[Orn][dL][Dab][Cha]V[Thr(3ξ)]CN[AEEA]K[Aun]-OH; thioether N-14) | 9.5 |
| CC(C)C[C@H]1NC(=O)[C@H](CCCN)NC(=O)[C@H](C(C)C)NC(=O)[C@H](Cc2ccc(-c3ccccc3)cc2)NC(=O)[C@H](C(C)C)NC(=O)[C@H](Cc2c[nH]c3ccccc23)NC(=O)[C@H](CC(=O)O)NC(=O)[C@H](Cc2ccc(OCC(=O)O)cc2)NC(=O)[C@H](CCCCNC(=N)N)NC(=O)CSC[C@@H](C(=O)N[C@@H](C)C(=O)NCCOCCOCC(=O)N[C@@H](CCN)C(=O)NCCCCCCCCCCC(=O)O)NC(=O)[C@H](C(C)O)NC(=O)[C@H](C(C)C)NC(=O)[C@H](CC2CCCCC2)NC(=O)[C@H](CCN)NC1=O (stereo partly drawn) [Compound 3028] ({CH2CO}-[hArg]Y(Carboxymethyl)DWV[Bip]V[Orn][dL][Dab][Cha]V[Thr(3ξ)]CA[AEEA][Dab][Aun]-OH; thioether N-14) | 16.4 |
| CC(C)C[C@H]1NC(=O)[C@H](CCCN)NC(=O)[C@H](C(C)C)NC(=O)[C@H](Cc2ccc(-c3ccccc3)cc2)NC(=O)[C@H](C(C)C)NC(=O)[C@H](Cc2c[nH]c3ccccc23)NC(=O)[C@H](CC(=O)O)NC(=O)[C@H](Cc2ccc(OCC(=O)O)cc2)NC(=O)[C@H](C(C)O)NC(=O)CSC[C@@H](C(=O)N[C@@H](C)C(=O)NCCOCCOCC(=O)N[C@@H](CCN)C(=O)NCCCCCCCCCCC(=O)O)NC(=O)[C@H](C(C)O)NC(=O)[C@H](C(C)C)NC(=O)[C@H](CC2CCCCC2)NC(=O)[C@H](CCN)NC1=O (stereo partly drawn) [Compound 3029] ({CH2CO}-[Thr(3ξ)]Y(Carboxymethyl)DWV[Bip]V[Orn][dL][Dab][Cha]V[Thr(3ξ)]CA[AEEA][Dab][Aun]-OH; thioether N-14) | 7.9 |
| CC(C)C[C@H]1NC(=O)[C@H](CCCN)NC(=O)[C@H](C(C)C)NC(=O)[C@H](Cc2ccc(-c3ccccc3)cc2)NC(=O)[C@H](C(C)C)NC(=O)[C@H](Cc2c[nH]c3ccccc23)NC(=O)[C@H](CC(=O)O)NC(=O)[C@H](Cc2ccc(OCC(=O)O)cc2)NC(=O)[C@H](CCCCNC(=N)N)NC(=O)CSC[C@@H](C(=O)N[C@@H](CC(N)=O)C(=O)NCCOCCOCC(=O)N[C@@H](CCCN)C(=O)NCCCCCCCCCCC(=O)O)NC(=O)[C@H](C(C)O)NC(=O)[C@H](C(C)C)NC(=O)[C@H](CC2CCCCC2)NC(=O)[C@H](CCN)NC1=O (stereo partly drawn) [Compound 3030] ({CH2CO}-[hArg]Y(Carboxymethyl)DWV[Bip]V[Orn][dL][Dab][Cha]V[Thr(3ξ)]CN[AEEA][Orn][Aun]-OH; thioether N-14) | 12.1 |
| CC(C)C[C@H]1NC(=O)[C@H](CCCN)NC(=O)[C@H](C(C)C)NC(=O)[C@H](Cc2ccc(-c3ccccc3)cc2)NC(=O)[C@H](C(C)C)NC(=O)[C@H](Cc2c[nH]c3ccccc23)NC(=O)[C@H](CC(=O)O)NC(=O)[C@H](Cc2ccc(OCC(=O)O)cc2)NC(=O)[C@H](C(C)O)NC(=O)CSC[C@@H](C(=O)N[C@@H](CC(N)=O)C(=O)NCCOCCOCC(=O)N[C@@H](CCCN)C(=O)NCCCCCCCCCCC(=O)O)NC(=O)[C@H](C(C)O)NC(=O)[C@H](C(C)C)NC(=O)[C@H](CC2CCCCC2)NC(=O)[C@H](CCN)NC1=O (stereo partly drawn) [Compound 3031] ({CH2CO}-[Thr(3ξ)]Y(Carboxymethyl)DWV[Bip]V[Orn][dL][Dab][Cha]V[Thr(3ξ)]CN[AEEA][Orn][Aun]-OH; thioether N-14) | 3.4 |
| CC(C)C[C@H]1NC(=O)[C@H](CCCN)NC(=O)[C@H](C(C)C)NC(=O)[C@H](Cc2ccc(-c3ccccc3)cc2)NC(=O)[C@H](C(C)C)NC(=O)[C@H](Cc2c[nH]c3ccccc23)NC(=O)[C@H](CC(=O)O)NC(=O)[C@H](Cc2ccc(OCC(=O)O)cc2)NC(=O)[C@H](CCCCNC(=N)N)NC(=O)CSC[C@@H](C(=O)N[C@@H](C)C(=O)NCCOCCOCC(=O)N[C@@H](CCCN)C(=O)NCCCCCCCCCCC(=O)O)NC(=O)[C@H](C(C)O)NC(=O)[C@H](C(C)C)NC(=O)[C@H](CC2CCCCC2)NC(=O)[C@H](Cc2c[nH]cn2)NC1=O (stereo partly drawn) [Compound 3032] ({CH2CO}-[hArg]Y(Carboxymethyl)DWV[Bip]V[Orn][dL]H[Cha]V[Thr(3ξ)]CA[AEEA][Orn][Aun]-OH; thioether N-14) | 26.5 |
| CC(C)C[C@H]1NC(=O)[C@H](CCCN)NC(=O)[C@H](C(C)C)NC(=O)[C@H](Cc2ccc(-c3ccccc3)cc2)NC(=O)[C@H](C(C)C)NC(=O)[C@H](Cc2c[nH]c3ccccc23)NC(=O)[C@H](CC(=O)O)NC(=O)[C@H](Cc2ccc(OCC(=O)O)cc2)NC(=O)[C@H](C(C)O)NC(=O)CSC[C@@H](C(=O)N[C@@H](C)C(=O)NCCOCCOCC(=O)N[C@@H](CCCN)C(=O)NCCCCCCCCCCC(=O)O)NC(=O)[C@H](C(C)O)NC(=O)[C@H](C(C)C)NC(=O)[C@H](CC2CCCCC2)NC(=O)[C@H](Cc2c[nH]cn2)NC1=O (stereo partly drawn) [Compound 3033] ({CH2CO}-[Thr(3ξ)]Y(Carboxymethyl)DWV[Bip]V[Orn][dL]H[Cha]V[Thr(3ξ)]CA[AEEA][Orn][Aun]-OH; thioether N-14) | 11.3 |
| CC(C)C[C@H]1NC(=O)[C@H](CCCN)NC(=O)[C@H](CCC(=O)O)NC(=O)[C@H](Cc2ccc(-c3ccccc3)cc2)NC(=O)[C@H](C(C)C)NC(=O)[C@H](Cc2c[nH]c3ccccc23)NC(=O)[C@H](CC(=O)O)NC(=O)[C@H](Cc2ccncc2)NC(=O)[C@H](CCCCNC(=N)N)NC(=O)CSC[C@@H](C(=O)N[C@@H](C)C(=O)NCCOCCOCC(=O)N[C@@H](CCCCN)C(=O)NCCCCCCCCCCCCCCC(=O)O)NC(=O)[C@H](CO)NC(=O)[C@H](C(C)C)NC(=O)[C@H](CC2CCCCC2)NC(=O)[C@H](CCN)NC1=O [Compound 3034] ({CH2CO}-[hArg][4Pal]DWV[Bip]E[Orn][dL][Dab][Cha]VSCA[AEEA]K-{NH(CH2)14COOH}; thioether N-14) | 109 |
| CC(C)C[C@H]1NC(=O)[C@H](CCCN)NC(=O)[C@H](C(C)C)NC(=O)[C@H](Cc2ccc(-c3ccccc3)cc2)NC(=O)[C@H](C(C)C)NC(=O)[C@H](Cc2c[nH]c3ccccc23)NC(=O)[C@H](CC(=O)O)NC(=O)[C@H](Cc2ccc(OCC(=O)O)cc2)NC(=O)[C@H](CCCCNC(=N)N)NC(=O)CSC[C@@H](C(=O)NCC(=O)NCCOCCOCC(=O)N[C@@H](CCCN)C(=O)NCCCCCCCCCCC(=O)O)NC(=O)[C@H](CO)NC(=O)[C@H](C(C)C)NC(=O)[C@H](CC2CCCCC2)NC(=O)[C@H](CCN)NC1=O [Compound 3035] ({CH2CO}-[hArg]Y(Carboxymethyl)DWV[Bip]V[Orn][dL][Dab][Cha]VSCG[AEEA][Orn][Aun]-OH; thioether N-14) | 10.7 |
| CC(C)C[C@H]1NC(=O)[C@H](CCCN)NC(=O)[C@H](C(C)C)NC(=O)[C@H](Cc2ccc(-c3ccccc3)cc2)NC(=O)[C@H](C(C)C)NC(=O)[C@H](Cc2c[nH]c3ccccc23)NC(=O)[C@H](CC(=O)O)NC(=O)[C@H](Cc2ccc(OCC(=O)O)cc2)NC(=O)[C@H](CCCCNC(=N)N)NC(=O)CSC[C@@H](C(=O)NCC(=O)NCCOCCOCC(=O)N[C@@H](CCCN)C(=O)NCCCCCCCCCCCC(=O)O)NC(=O)[C@H](CO)NC(=O)[C@H](C(C)C)NC(=O)[C@H](CC2CCCCC2)NC(=O)[C@H](CCN)NC1=O [Compound 3036] ({CH2CO}-[hArg]Y(Carboxymethyl)DWV[Bip]V[Orn][dL][Dab][Cha]VSCG[AEEA][Orn][12Ado]-OH; thioether N-14) | 4.9 |
| CC(C)C[C@H]1NC(=O)[C@H](CCCN)NC(=O)[C@H](C(C)C)NC(=O)[C@H](Cc2ccc(-c3ccccc3)cc2)NC(=O)[C@H](C(C)C)NC(=O)[C@H](Cc2c[nH]c3ccccc23)NC(=O)[C@H](CC(=O)O)NC(=O)[C@H](Cc2ccc(OCC(=O)O)cc2)NC(=O)[C@H](CCCCNC(=N)N)NC(=O)CSC[C@@H](C(=O)NCC(=O)NCCOCCOCC(=O)N[C@@H](CCCN)C(=O)NCCCCCCCCCCCCC(=O)O)NC(=O)[C@H](CO)NC(=O)[C@H](C(C)C)NC(=O)[C@H](CC2CCCCC2)NC(=O)[C@H](CCN)NC1=O [Compound 3037] ({CH2CO}-[hArg]Y(Carboxymethyl)DWV[Bip]V[Orn][dL][Dab][Cha]VSCG[AEEA][Orn]-{NH(CH2)12COOH}; thioether N-14) | 16.5 |
| CC(C)C[C@H]1NC(=O)[C@H](CCCN)NC(=O)[C@H](C(C)C)NC(=O)[C@H](Cc2ccc(-c3ccccc3)cc2)NC(=O)[C@H](C(C)C)NC(=O)[C@H](Cc2c[nH]c3ccccc23)NC(=O)[C@H](CC(=O)O)NC(=O)[C@H](Cc2ccc(C(=O)O)cc2)NC(=O)[C@H](C(C)O)NC(=O)CSC[C@@H](C(=O)N[C@@H](CC(N)=O)C(=O)NCCOCCOCC(=O)N[C@@H](CCCN)C(=O)NCCCCCCCCCCCC(=O)O)NC(=O)[C@H](CO)NC(=O)[C@H](C(C)C)NC(=O)[C@H](CC2CCCCC2)NC(=O)[C@H](CCN)NC1=O (stereo partly drawn) [Compound 3038] ({CH2CO}-[Thr(3ξ)][Phe(4-COOH)]DWV[Bip]V[Orn][dL][Dab][Cha]VSCN[AEEA][Orn][12Ado]-OH; thioether N-14) | 11.3 |

Source: US20260022142A1, “MACROCYCLIC IMMUNOMODULATORS” (Bristol-Myers Squibb Company, priority 2022, published 2026)
